The values that follow come from article PMC5771238 (Neuropharmacology, 2017).

Where two headings read alike, the source gives them in different places.

In one assay the test system is C57/Bl6J mice. Briefly: THC drug discrimination. The settings on record: for effect on response rates / substitution for THC when administered alone / effect on THC's discriminative stimulus effects: second group; for effect on THC's discriminative stimulus effects: modulators 10 mg/kg, rimonabant 1 mg/kg with 5.6 mg/kg THC. It counts as in vivo, mouse.
The target in assay [1] is T1, CB1 receptor (Mus musculus, UniProt P47746). Briefly: CP55,940-stimulated [35S]GTPγS binding in mouse cerebellar membranes. The assay is classed as biochemical. The settings on record: for alpha ± SEM (binding cooperativity with CP55,940) / beta ± SEM (efficacy modifier): allosteric operational model, logKA=−6.6, Emax=100, TA=14, TB=0, n=1, LogKB from [3H]SR141716 binding.
T1 sequence (P47746 whole entry): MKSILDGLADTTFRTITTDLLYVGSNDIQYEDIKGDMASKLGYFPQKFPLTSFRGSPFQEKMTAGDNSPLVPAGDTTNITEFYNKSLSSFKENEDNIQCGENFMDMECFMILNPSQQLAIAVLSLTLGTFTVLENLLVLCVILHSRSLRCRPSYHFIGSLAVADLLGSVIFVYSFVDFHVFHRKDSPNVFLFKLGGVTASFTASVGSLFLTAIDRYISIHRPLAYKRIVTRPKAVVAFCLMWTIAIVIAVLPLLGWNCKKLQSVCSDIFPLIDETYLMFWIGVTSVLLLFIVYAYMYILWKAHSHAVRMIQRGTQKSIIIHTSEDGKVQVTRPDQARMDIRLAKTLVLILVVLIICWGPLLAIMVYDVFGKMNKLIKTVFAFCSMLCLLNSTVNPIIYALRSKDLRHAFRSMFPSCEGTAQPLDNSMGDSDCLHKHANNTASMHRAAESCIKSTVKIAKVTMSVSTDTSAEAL

Assay [2] deals with T1, CB1 receptor. Briefly: THC-stimulated [35S]GTPγS binding in mouse cerebellar membranes. It counts as biochemical. The settings on record: pregnenolone 1 – 10 μM.
Assay [3] concerns the target T1, CB1 receptor. Briefly: [3H]CP55,940 specific binding.
The subject of a further assay is ICR mice. Briefly: Cannabinoid tetrad tests. The assay is classed as in vivo, mouse. The conditions noted are these: for effect on THC's effects on activity, hypothermia, catalepsy / effect on THC's anti-nociceptive effect: 10 mg/kg modulator i.p. 10 min before 30 mg/kg THC; for effect on THC's anti-nociceptive effect: tail flick.
The target of assay [4] is T1, CB1 receptor.
The next assay relates to mice. Briefly: Feeding in mice. The assay is classed as in vivo, mouse. The conditions noted are these: 30 mg/kg; unpublished results.
Assay [5] addresses T1, CB1 receptor. Briefly: biochemical. The settings on record: pKB ± SEM.
[6] abbreviates: 3 parameter non-linear regression.
Where [7] appears, read: 1 nM [3H]SR141716, allosteric ternary complex model, no GDP.

With `CCNC1(C(N)=O)CCN(c2ncnc3c2nc(-c2ccccc2Cl)n3-c2ccc(Cl)cc2)CC1` [otenabant], in the assay on C57/Bl6J mice, the “effect on response rates” value is “significantly decreased response rates”, the “substitution for THC when administered alone” value was “without substituting themselves when administered alone” and the “effect on THC's discriminative stimulus effects” value is recorded as “blocked THC’s discriminative stimulus effects”.

`N#Cc1ccc(NC(=O)Nc2cccc(-c3cccc(N4CCCC4)n3)c2)cc1` [RTICBM-28]: at CB1 receptor [1] (CP55,940 10 nM), the “pIC50 ± SEM” value came to 7.34 ± 0.05. The “pIC50 ± SEM” value on CB1 receptor [1] (CP55,940 1 μM) was 7.72 ± 0.03. In addition, the “pIC50 ± SEM” value at CB1 receptor [1] (CP55,940 10 μM) turned out to be 7.59 ± 0.03. On CB1 receptor [1], the “alpha ± SEM (binding cooperativity with CP55,940)” value worked out at 201.1 ± 11.95 and the “beta ± SEM (efficacy modifier)” value came out at 0.001 ± 0.001. Further, the “effect on THC-stimulated [35S]GTPγS binding” value on CB1 receptor [2] is recorded as “produced insurmountable antagonism”. For the same compound, at CB1 receptor [3] (setting [6]), the “Top ± SEM (maximal increase in specific binding of [3H]CP55,940)” value is given as 477.5 ± 15.14 and the “pEC50 ± SEM for increase in specific binding of [3H]CP55,940” value was 6.61 ± 0.07. Besides, in the assay on ICR mice, the “effect on THC's effects on activity, hypothermia, catalepsy” value is on record as “did not alter” and the “effect on THC's anti-nociceptive effect” value is “but not RTICBM-15 or RTICBM-28, decreased THC’s anti-nociceptive effect”. In the assay with C57/Bl6J mice, the “effect on response rates” value is recorded as “Neither compound decreased response rates” and the “effect on THC's discriminative stimulus effects” value is reported as “lowered THC potency”. On CB1 receptor [4] (setting [7]), the “logα ± SEM (cooperativity with [3H]SR141716)” value is reported as −1.13 ± 0.18 and the “pKB ± SEM” value worked out at 6.65 ± 0.11. Further, on CB1 receptor [4] (in presence of 30 μM GDP), the “pKB ± SEM” value turned out to be 5.86 ± 0.10.

For the compound `Cc1c(C(=O)NN2CCCCC2)nn(-c2ccc(Cl)cc2Cl)c1-c1ccc(Cl)cc1` [SR141716, rimonabant], the “effect on locomotor activity in combination with THC” value in the assay on ICR mice (3 mg/kg rimonabant and 30 mg/kg THC) is reported as “increased activity”. Further, the “reversal of THC-induced antinociception, hypothermia, catalepsy” value in the assay on ICR mice (3 mg/kg rimonabant i.p. before 30 mg/kg THC) was “rimonabant-reversible”. In addition, the “effect on locomotor activity, anti-nociception, rectal temperature, catalepsy when followed by vehicle injection” value in the assay on ICR mice (10 mg/kg modulator or 3 mg/kg rimonabant i.p., vs vehicle/vehicle) is recorded as “did not have any effect”. In the assay with C57/Bl6J mice, the “effect on response rates” value is recorded as “significantly decreased response rates”, the “substitution for THC when administered alone” value is “without substituting themselves when administered alone” and the “effect on THC's discriminative stimulus effects” value was “blocked THC’s discriminative stimulus effects”.

As for `CC(=O)[C@H]1CC[C@H]2[C@@H]3CC=C4C[C@@H](O)CC[C@]4(C)[C@H]3CC[C@]12C` [pregnenolone], the “effect on THC's effects in the cannabinoid tetrad” value in the assay on ICR mice (stated in abstract only) is “did not block THC’s effects”. In the assay on C57/Bl6J mice (first group, compound alone), the “substitution and response rate effects in combination with vehicle” value is recorded as “neither compound produced substitution or response rate effects”.

For `O=C(Nc1ccc(Cl)cc1)Nc1cccc(-c2cccc(N3CCCC3)n2)c1` [PSNCBAM-1, 1-(4-chlorophenyl)-3-{3-[6-(pyrrolidin-1-yl)pyridin-2-yl]phenyl}urea], the IC50 was 49.2 nM on CB1 receptor [1] (IC50, at 100 nM CP55,940); 83.2 nM at CB1 receptor [1] (pIC50 ± SEM, CP55,940 10 nM); 39.8 nM on CB1 receptor [1] (pIC50 ± SEM, CP55,940 1 μM); 50.1 nM at CB1 receptor [1] (pIC50 ± SEM, CP55,940 10 μM). Moreover, the “alpha ± SEM (binding cooperativity with CP55,940)” value at CB1 receptor [1] was determined as 55.01 ± 3.76. The “beta ± SEM (efficacy modifier)” value at CB1 receptor [1] is 0.003 ± 0.001. Also, the “effect on THC-stimulated [35S]GTPγS binding” value on CB1 receptor [2] was “produced insurmountable antagonism”. Also, on CB1 receptor [3], the EC50 is 295 nM. Besides, on CB1 receptor [3] (setting [6]), the “Top ± SEM (maximal increase in specific binding of [3H]CP55,940)” value came to 419.1 ± 8.75. Moreover, the “effect on THC's effects on activity, hypothermia, catalepsy” value with ICR mice was “did not alter”. In addition, the “effect on THC's anti-nociceptive effect” value in the assay with ICR mice is “decreased THC’s anti-nociceptive effect”. In addition, the “effect on response rates” value with C57/Bl6J mice is “Neither compound decreased response rates”. Besides, the “effect on THC's discriminative stimulus effects” value with C57/Bl6J mice was “did not alter THC’s discriminative stimulus effects”. For the same compound, the “effect on feeding in mice” value in the assay with mice is “did not observe an effect”. In addition, the “logα ± SEM (cooperativity with [3H]SR141716)” value at CB1 receptor [4] (setting [7]) is listed as −0.73 ± 0.12. For the same compound, the Kb on CB1 receptor [5] (setting [7]) is 195 nM; at CB1 receptor [5] (in presence of 30 μM GDP), 1820 nM.

`CCCCCc1cc(O)c2c(c1)OC(C)(C)[C@@H]1CCC(C)=C[C@@H]21` [THC, delta-9-tetrahydrocannabinol]: in the assay with ICR mice (THC 30 mg/kg i.p. with vehicle), the “effect on locomotor activity” value is recorded as “did not affect locomotor activity”; the “tetrad effects: antinociception, hypothermia, catalepsy” value is “produced rimonabant-reversible antinociception (Figure 4B), hypothermia (Figure 4C), and catalepsy (Figure 4D)”.

As usually defined, the IC50 is the concentration needed to halve the response being measured. Lower therefore signals greater potency in that assay. The EC50 is the concentration giving half of the maximal effect. A low value points to a more potent agent.
